# In paper PMC8952364, “Polyphenols as Inhibitors of Antibiotic Resistant Bacteria—Mechanisms Underlying Rutin Interference with Bacterial Virulence” (Pharmaceuticals, 2022):
# Read-outs that look alike come from different tables or passages of the source.
# What was measured:
# E. coli IMD989 = assay: Antimicrobial microdilution assay (MIC/MBC); type: cell-based, Escherichia coli; conditions: Escherichia coli, IMD989
# Method in brief: (§1)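 Broth microdilution with 0.5 McFarland suspension diluted twenty-fold and mixed 1:10 with compound (0.0039–1 mg/mL, from 30% ethanol stocks); 24 h at 37 °C. Triplicate runs.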
# E. coli IBRS E003 = assay: Antimicrobial microdilution assay (MIC/MBC); type: cell-based, Escherichia coli; conditions: Escherichia coli, IBRSE003
# Method in brief: as §1
# A. xylosoxidans 37F = assay: Antimicrobial microdilution assay (MIC/MBC); type: cell-based, Achromobacter xylosoxidans; conditions: Achromobacter xylosoxidans, 37F
# Method in brief: as §1
# [1] = system: P. aeruginosa IBRS P001 pyocyanin production; assay: Pyocyanin assay; type: cell-based, Pseudomonas aeruginosa; conditions: 0.25 mg/mL (0.5 MIC), compared to the control
# Procedure: Pyocyanin extraction from the culture supernatant was performed using chloroform in a 1:2 ratio [71]. The second extraction of the chloroform phase was done by 0.2 N HCl (3:1 ratio). The pyocyanin concentration was evaluated by recording the absorbance at 520 nm using a Plate Reader Infinite 200 pro (MTX Lab Systems, Vienna, VA, USA). The pyocyanin concentration was calculated by multiplication of the absorbance (A520) by 17.072. A solvent-treated culture supernatant was used as a positive control.
# P. aeruginosa IBRS P001 [2] = assay: Membrane permeability assay (nucleotide and protein leakage); type: cell-based, Pseudomonas aeruginosa; conditions: rutin MIC; absorbance of released nucleic acids (260 nm) and proteins (280 nm) increased after 60 min
# Procedure: (§2) The effect of rutin on membrane permeability (nucleotide and protein leakage) was evaluated as described earlier with some modifications. The culture of P. aeruginosa IBRS P001 and MRSA IBRS MRSA 011 was incubated overnight at 37 °C, washed, and suspended in 10 mM PBS in order to achieve the final density of 10^8 CFU/mL. Bacteria were incubated with rutin at a concentration equal to MIC for time intervals 0, 30, 60, and 90 min. Bacteria incubated with PBS were used as control. After incubation the mixture was filtered through a 0.22 μm pore size filter to remove […]. The optical density of the filtrate was measured at 260 and 280 nm with an Agilent/HP 8453 UV-Visible Spectrophotometer (Agilent Technologies, Santa Clara, CA, USA) at room temperature (25 °C).
# P. aeruginosa IBRS P001 [3] = assay: Antimicrobial microdilution assay (MIC/MBC); type: cell-based, Pseudomonas aeruginosa; conditions: Pseudomonas aeruginosa, IBRSP001; for MIC: read-out: MIC
# Method in brief: as §1
# P. aeruginosa MMA83 = assay: Antimicrobial microdilution assay (MIC/MBC); type: cell-based, Pseudomonas aeruginosa; conditions: Pseudomonas aeruginosa, MMA83
# Method in brief: as §1
# [4] = system: P. aeruginosa IBRS P001 rhamnolipid production; assay: Rhamnolipid assay; type: cell-based, Pseudomonas aeruginosa; conditions: 0.25 mg/mL (0.5 MIC), compared to the control
# Procedure: Culture supernatants of the previously cultivated P. aeruginosa IBRS P001 strain incubated with rutin 0.250 mg/mL were acidified by using HCl to pH 2.0 [72]. Rhamnolipid production was measured spectrophotometrically at 570 nm by a Plate Reader Infinite 200 pro (MTX Lab Systems, Vienna, VA, USA). A solvent treated culture supernatant was used as a positive control.
# K. pneumoniae Ni9 = assay: Antimicrobial microdilution assay (MIC/MBC); type: cell-based, Klebsiella pneumoniae; conditions: Klebsiella pneumoniae, NI9
# Method in brief: as §1
# K. pneumoniae IT977 = assay: Antimicrobial microdilution assay (MIC/MBC); type: cell-based, Klebsiella pneumoniae; conditions: Klebsiella pneumoniae, IT977
# Method in brief: as §1
# MRSA IBRS MRSA 011 = assay: Membrane permeability assay (nucleotide and protein leakage); type: cell-based, Staphylococcus aureus; conditions: rutin MIC; more significant increase in absorbance at 260 and 280 nm after 90 min
# Procedure: as §2
# [5] = system: P. aeruginosa IBRS P001 biofilm; assay: Quantification of eDNA (biofilm formation); type: cell-based; conditions: Pseudomonas aeruginosa, IBRSP001BIOFILM; 0.25 MIC, 0.125 mg/mL; read-out: inhibition of eDNA levels
# Procedure: The quantity of eDNA was determined as previously described, with some modifications. […] Subsequently, the planktonic cells were removed, and the wells were washed with PBS. TE buffer (Tris-EDTA buffer solution) was added to the wells and content was mixed vigorously by pipetting. The samples were transferred to 1.5 mL tubes and centrifuged at 10,000× g for 10 min. After removal of the supernatant, the pellet was suspended in a TE buffer by vortexing. Absorbance of the supernatant (260 nm) was measured after centrifugation at 10,000× g for 15 min. We calculated the inhibition percentage of eDNA relative to an untreated control. The solvent treated sample was used as the control.
# A. baumannii 6077/12 = assay: Antimicrobial microdilution assay (MIC/MBC); type: cell-based, Acinetobacter baumannii; conditions: Acinetobacter baumannii, 6077/12
# Method in brief: as §1
# A. baumannii S2/2 = assay: Antimicrobial microdilution assay (MIC/MBC); type: cell-based, Acinetobacter baumannii; conditions: Acinetobacter baumannii, S2/2
# Method in brief: as §1
# [6] = system: multiple drug resistant P. aeruginosa; set-up: method as in doi:10.1016/j.foodcont.2018.02.044; conditions: cited from earlier work
# [7] = subcultivation, 24 h at 37 °C, read-out: MBC
compound,measurement,setting,value
"C[C@@H]1O[C@@H](OC[C@H]2O[C@@H](Oc3c(-c4ccc(O)c(O)c4)oc4cc(O)cc(O)c4c3=O)[C@H](O)[C@@H](O)[C@@H]2O)[C@H](O)[C@H](O)[C@H]1O [Rutin, rutin]",MIC,"E. coli IMD989; 37 °C, 24 h, read-out: MIC",1000 µg/mL
same,MBC,E. coli IMD989; [7],1000 µg/mL
same,MIC,"E. coli IBRS E003; 37 °C, 24 h, read-out: MIC",> 1000 µg/mL
same,MBC,E. coli IBRS E003; [7],> 1000 µg/mL
same,MIC,"A. xylosoxidans 37F; 37 °C, 24 h, read-out: MIC",500 µg/mL
same,MBC,A. xylosoxidans 37F; [7],1000 µg/mL
same,decrease of pyocyanin production,[1],82.1%
same,"cell membrane integrity, in words",P. aeruginosa IBRS P001 [2],obstructed P. aeruginosa IBRS P001 cell membrane integrity
same,MIC,"P. aeruginosa IBRS P001 [3]; 37 °C, 24 h",500 µg/mL
same,MIC,P. aeruginosa IBRS P001 [3]; restated in the discussion,500 µg/mL
same,MBC,P. aeruginosa IBRS P001 [3]; [7],1000 µg/mL
same,MIC,"P. aeruginosa MMA83; 37 °C, 24 h, read-out: MIC",500 µg/mL
same,MBC,P. aeruginosa MMA83; [7],500 µg/mL
same,decrease of rhamnolipid production,[4],74.4%
same,MIC,"K. pneumoniae Ni9; 37 °C, 24 h, read-out: MIC",1000 µg/mL
same,MBC,K. pneumoniae Ni9; [7],1000 µg/mL
same,MIC,"K. pneumoniae IT977; 37 °C, 24 h, read-out: MIC",1000 µg/mL
same,MBC,K. pneumoniae IT977; [7],1000 µg/mL
same,"cell membrane integrity, in words",MRSA IBRS MRSA 011,disrupted
same,inhibition at 125 µg/mL,[5],> 50%
same,MIC,"A. baumannii 6077/12; 37 °C, 24 h, read-out: MIC",500 µg/mL
same,MBC,A. baumannii 6077/12; [7],500 µg/mL
same,MIC,"A. baumannii S2/2; 37 °C, 24 h, read-out: MIC",500 µg/mL
same,MBC,A. baumannii S2/2; [7],500 µg/mL
same,MIC,[6],800 µg/mL
